Patent US6479435B1, “Diaryl ethers and processes for their preparation and herbicidal and desiccant compositions containing them” (ISK Americas Incorporated, priority 1997, dated 2002)

How the values were obtained:
Assay type in all cases: in vivo
[1] = tested on: large crabgrass (Digitaria sanguinalis, DIGSA); experiment: Post-emerge greenhouse herbicide test, phytotoxicity rating; conditions: Digitaria sanguinalis, post-emergence, 336 h, 14 days after application, scale 0-100; for pest or weed control at 63 g/ha: rate 63 g ai/ha; for pest or weed control at 500 g/ha: rate 500 g ai/ha
Method in brief: (§1)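 Compounds in acetone with 0.25% v/v non-ionic surfactant were track-sprayed at 187 l/ha over plants at the 2-3 leaf stage, at 63 to 1000 g ai/ha. Pots were bottom-watered. Injury was scored visually 14 days later on a 0-100 scale, where 0 is no damage and 100 is complete plant death.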

[2] = tested on: Johnsongrass (Sorghum halepense, SORHA); experiment: as above; conditions: Sorghum halepense, post-emergence, 336 h, 14 days after application, scale 0-100; for pest or weed control at 63 g/ha: rate 63 g ai/ha; for pest or weed control at 500 g/ha: rate 500 g ai/ha
Method in brief: as §1

[3] = tested on: velvetleaf (Abutilon theophrasti, ABUTH); experiment: as above; conditions: Abutilon theophrasti, post-emergence, 336 h, 14 days after application, scale 0-100; for pest or weed control at 63 g/ha: rate 63 g ai/ha; for pest or weed control at 500 g/ha: rate 500 g ai/ha
Method in brief: as §1

[4] = tested on: green foxtail (Setaria viridis, SETVI); experiment: as above; conditions: Setaria viridis, post-emergence, 336 h, 14 days after application, scale 0-100; for pest or weed control at 63 g/ha: rate 63 g ai/ha; for pest or weed control at 500 g/ha: rate 500 g ai/ha
Method in brief: as §1

[5] = tested on: redroot pigweed (Amaranthus retroflexus, AMARE); experiment: as above; conditions: Amaranthus retroflexus, post-emergence, 336 h, 14 days after application, scale 0-100; for pest or weed control at 63 g/ha: rate 63 g ai/ha; for pest or weed control at 500 g/ha: rate 500 g ai/ha
Method in brief: as §1

[6] = tested on: ivyleaf morningglory (Ipomoea hederacea, IPOHE); experiment: as above; conditions: Ipomoea, post-emergence, 336 h, 14 days after application, scale 0-100; for pest or weed control at 63 g/ha: rate 63 g ai/ha; for pest or weed control at 500 g/ha: rate 500 g ai/ha
Method in brief: as §1

[7] = tested on: sicklepod (Cassia obtusifolia, CASOB); experiment: as above; conditions: Senna obtusifolia, post-emergence, 336 h, 14 days after application, scale 0-100; for pest or weed control at 63 g/ha: rate 63 g ai/ha; for pest or weed control at 500 g/ha: rate 500 g ai/ha
Method in brief: as §1

[8] = tested on: barnyardgrass (Echinochloa crusgalli, ECHCG); experiment: as above; conditions: Echinochloa crus-galli, post-emergence, 336 h, 14 days after application, scale 0-100; for pest or weed control at 63 g/ha: rate 63 g ai/ha; for pest or weed control at 500 g/ha: rate 500 g ai/ha
Method in brief: as §1

[9] = tested on: lambsquarters (Chenopodium album, CHEAL); experiment: as above; conditions: Chenopodium album, post-emergence, 336 h, 14 days after application, scale 0-100; for pest or weed control at 63 g/ha: rate 63 g ai/ha; for pest or weed control at 500 g/ha: rate 500 g ai/ha
Method in brief: as §1

[10] = tested on: Johnsongrass (Sorghum halepense, SORHA); experiment: Pre-emerge greenhouse herbicide test, phytotoxicity rating; conditions: Sorghum halepense, pre-emergence, 336 h, 14 days after application, rating scale 0-100; for pest or weed control at 125 g/ha: Rate 125 g al/ha; for pest or weed control at 500 g/ha: Rate 500 g al/ha
Method in brief: (§2)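 Seeds sown in sandy loam mix one day before track-sprayer application of compounds in acetone at 125–1000 g ai/ha (187 l/ha), then surface-watered to incorporate and bottom-watered. Visual rating 14 days after application on a 0–100 scale (0 = no damage, 100 = all plants dead).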

[11] = tested on: velvetleaf (Abutilon theophrasti, ABUTH); experiment: as above; conditions: Abutilon theophrasti, pre-emergence, 336 h, 14 days after application, rating scale 0-100; for pest or weed control at 125 g/ha: Rate 125 g al/ha; for pest or weed control at 500 g/ha: Rate 500 g al/ha
Method in brief: as §2

[12] = tested on: green foxtail (Setaria viridis, SETVI); experiment: as above; conditions: Setaria viridis, pre-emergence, 336 h, 14 days after application, rating scale 0-100; for pest or weed control at 125 g/ha: Rate 125 g al/ha; for pest or weed control at 500 g/ha: Rate 500 g al/ha
Method in brief: as §2

[13] = tested on: ivyleaf morningglory (Ipomoea hederacea, IPOHE); experiment: as above; conditions: Ipomoea, pre-emergence, 336 h, 14 days after application, rating scale 0-100; for pest or weed control at 125 g/ha: Rate 125 g al/ha; for pest or weed control at 500 g/ha: Rate 500 g al/ha
Method in brief: as §2

[14] = tested on: barnyardgrass (Echinochloa crusgalli, ECHCG); experiment: as above; conditions: Echinochloa crus-galli, pre-emergence, 336 h, 14 days after application, rating scale 0-100; for pest or weed control at 125 g/ha: Rate 125 g al/ha; for pest or weed control at 500 g/ha: Rate 500 g al/ha
Method in brief: as §2

[15] = tested on: lambsquarters (Chenopodium album, CHEAL); experiment: as above; conditions: Chenopodium album, pre-emergence, 336 h, 14 days after application, rating scale 0-100; for pest or weed control at 125 g/ha: Rate 125 g al/ha; for pest or weed control at 500 g/ha: Rate 500 g al/ha
Method in brief: as §2

Row | SMILES | pest or weed control at 63 g/ha [1] [%] | pest or weed control at 500 g/ha [1] [%] | pest or weed control at 63 g/ha [2] [%] | pest or weed control at 500 g/ha [2] [%] | pest or weed control at 63 g/ha [3] [%] | pest or weed control at 500 g/ha [3] [%] | pest or weed control at 63 g/ha [4] [%] | pest or weed control at 500 g/ha [4] [%] | pest or weed control at 63 g/ha [5] [%] | pest or weed control at 500 g/ha [5] [%] | pest or weed control at 63 g/ha [6] [%] | pest or weed control at 500 g/ha [6] [%] | pest or weed control at 63 g/ha [7] [%] | pest or weed control at 500 g/ha [7] [%] | pest or weed control at 63 g/ha [8] [%] | pest or weed control at 500 g/ha [8] [%] | pest or weed control at 63 g/ha [9] [%] | pest or weed control at 500 g/ha [9] [%] | pest or weed control at 125 g/ha [10] [%] | pest or weed control at 500 g/ha [10] [%] | further results
1 | Nn1c(C(F)(F)F)cc(=O)n(-c2cc(Oc3cc(C(F)(F)F)ccn3)c(Cl)cc2F)c1=O [Compound 9-8, 1-Amino-3-[4-chloro-2-fluoro-5-(4-trifluoromethyl-2-pyridyloxy)phenyl]-6-trifluoromethyl-1,2,3,4-tetrahydropyrimidine-2,4-dione] | 10 | 30 | 30 | 90 | 100 | 100 | 30 | 75 | 100 | 100 | 95 | 100 | 30 | 30 | 10 | 95 | 95 | 100 | 50 | 99 | pest or weed control at 125 g/ha [11]: 100%; pest or weed control at 500 g/ha [11]: 100%; pest or weed control at 125 g/ha [12]: 40%; pest or weed control at 500 g/ha [12]: 100%; pest or weed control at 125 g/ha [13]: 95%; pest or weed control at 500 g/ha [13]: 100%; pest or weed control at 125 g/ha [14]: 30%; pest or weed control at 500 g/ha [14]: 99%; pest or weed control at 125 g/ha [15]: 100%; pest or weed control at 500 g/ha [15]: 100%
2 | N#Cc1cccnc1Oc1cc(-n2c(=O)cc(C(F)(F)F)n(N)c2=O)c(F)cc1Cl [Compound 9-9, 1-Amino-3-[4-chloro-2-fluoro-5-(3-cyano-2-pyridyloxy)phenyl]-6-trifluoromethyl-1,2,3,4-tetrahydropyrimidine-2,4-dione] | 10 | 90 | 40 | 100 | 100 | 100 | 20 | 90 | 100 | 100 | 90 | 100 | 90 | 100 | 10 | 100 | 90 | 100 | 100 | 100 | pest or weed control at 125 g/ha [11]: 100%; pest or weed control at 500 g/ha [11]: 100%; pest or weed control at 125 g/ha [12]: 100%; pest or weed control at 500 g/ha [12]: 100%; pest or weed control at 125 g/ha [13]: 100%; pest or weed control at 500 g/ha [13]: 100%; pest or weed control at 125 g/ha [14]: 100%; pest or weed control at 500 g/ha [14]: 100%; pest or weed control at 125 g/ha [15]: 100%; pest or weed control at 500 g/ha [15]: 100%
3 | N#Cc1ccc(Oc2cc(-n3c(=O)cc(C(F)(F)F)n(N)c3=O)c(F)cc2Cl)nc1 [Compound 9-10, 1-Amino-3-[4-chloro-2-fluoro-5-(5-cyano-2-pyridyloxy)phenyl]-6-trifluoromethyl-1,2,3,4-tetrahydropyrimidine-2,4-dione] | 10 | 20 | 60 | 95 | 100 | 100 | 20 | 70 | 100 | 80 | 100 | 100 | 40 | 50 | 20 | 95 | 100 | 100 | 95 | 100 | pest or weed control at 125 g/ha [11]: 100%; pest or weed control at 500 g/ha [11]: 100%; pest or weed control at 125 g/ha [12]: 100%; pest or weed control at 500 g/ha [12]: 100%; pest or weed control at 125 g/ha [13]: 100%; pest or weed control at 500 g/ha [13]: 100%; pest or weed control at 125 g/ha [14]: 90%; pest or weed control at 500 g/ha [14]: 100%; pest or weed control at 125 g/ha [15]: 100%; pest or weed control at 500 g/ha [15]: 100%
4 | Nn1c(C(F)(F)F)cc(=O)n(-c2cc(Oc3ccc([N+](=O)[O-])cn3)c(Cl)cc2F)c1=O [Compound 9-11, 1-Amino-3-[4-chloro-2-fluoro-5-(5-nitro-2-pyridyloxy)phenyl]-6-trifluoromethyl-1,2,3,4-tetrahydropyrimidine-2,4-dione] | 40 | 80 | 20 | 80 | 100 | 100 | 20 | 40 | 100 | 100 | 100 | 100 | 30 | 80 | 0 | 50 | 80 | 100 | 20 | 90 | pest or weed control at 125 g/ha [11]: 100%; pest or weed control at 500 g/ha [11]: 100%; pest or weed control at 125 g/ha [12]: 70%; pest or weed control at 500 g/ha [12]: 100%; pest or weed control at 125 g/ha [13]: 10%; pest or weed control at 500 g/ha [13]: 100%; pest or weed control at 125 g/ha [14]: 10%; pest or weed control at 500 g/ha [14]: 80%; pest or weed control at 125 g/ha [15]: 100%; pest or weed control at 500 g/ha [15]: 100%
